*1 amine or outer side, *2 acyl side, *3 side chain or, on linkers, in order; H or OH if unused. Where a SMILES comes first, the peptide text is derived from it. Side-chain parts run from the residue outwards. [ ]: non-standard residue; d: D form. The star is where a group is joined. PEG12 = NCCOCCOCCOCCOCCOCCOCCOCCOCCOCCOCCOCCOCCC(=O)O; γGlu = O=C(O)[C@H](CCC(=O)[*:2])N[*:1]; Palmitoyl = CCCCCCCCCCCCCCCC(=O)*; Nle = CCCC[C@H](N)C(=O)O; Aib = CC(C)(N)C(=O)O
Tests used:
RXFP1 = target: T1, RXFP1 (Homo sapiens, UniProt Q9HBX9); assay: OVCAR5 cAMP assay (HTRF), RXFP1 agonist activity; format: cell-based; conditions: for Emax: OVCAR-5, maximal cAMP relative to H2-relaxin maximum (100%), read-out: EMax, OVCAR 5 cells (cAMP); for EC50: OVCAR5 cells, cAMP HTRF, read-out: EC50 (nM), OVCAR 5 cells (cAMP)
T1 construct: OVCAR5 cells expressing endogenous RXFP1; endogenous in cells; host or cells: OVCAR5 cells
T1 sequence (Q9HBX9 1-757): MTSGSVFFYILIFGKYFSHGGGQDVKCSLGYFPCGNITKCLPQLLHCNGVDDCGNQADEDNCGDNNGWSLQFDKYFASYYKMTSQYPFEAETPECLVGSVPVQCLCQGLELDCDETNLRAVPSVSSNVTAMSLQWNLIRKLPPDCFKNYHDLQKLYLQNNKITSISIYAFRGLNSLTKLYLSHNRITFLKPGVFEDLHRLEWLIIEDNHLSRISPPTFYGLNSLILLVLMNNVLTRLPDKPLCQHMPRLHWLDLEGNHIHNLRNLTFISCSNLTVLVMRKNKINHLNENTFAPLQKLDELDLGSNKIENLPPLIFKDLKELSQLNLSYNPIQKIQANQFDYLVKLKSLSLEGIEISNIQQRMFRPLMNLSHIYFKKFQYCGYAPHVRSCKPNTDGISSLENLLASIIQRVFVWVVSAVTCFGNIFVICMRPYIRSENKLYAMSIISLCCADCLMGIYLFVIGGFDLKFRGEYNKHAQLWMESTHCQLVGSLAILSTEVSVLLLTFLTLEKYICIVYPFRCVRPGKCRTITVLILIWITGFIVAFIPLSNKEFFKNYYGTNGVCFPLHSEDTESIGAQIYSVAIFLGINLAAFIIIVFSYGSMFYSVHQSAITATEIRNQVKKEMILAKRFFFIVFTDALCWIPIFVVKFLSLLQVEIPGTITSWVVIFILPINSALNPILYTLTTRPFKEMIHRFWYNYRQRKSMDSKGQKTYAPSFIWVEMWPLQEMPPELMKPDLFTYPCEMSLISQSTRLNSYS
In short: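 cAMP accumulation readout: after 1 mM IBMX for 40 min, endogenous-RXFP1 OVCAR5 cells got rising peptide concentrations without FCS, 30 min, 37° C, then lysis with HTRF cAMP reagents. Nonlinear regression gave EC50; Emax expressed relative to H2-relaxin maximum, same occasion.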

[1] = Pharmacokinetic (PK) determination after i.v. or s.c. administration to rats; format: in vivo, Sprague Dawley rats; conditions: Rat PK; for C0 / half-life / Cmax / Tmax / bioavailability: Sprague Dawley; for C0 / half-life: iv; for C0: extrapolated plasma concentration at t=0, read-out: C0; for half-life / Cmax / Tmax / bioavailability: plasma; for half-life: read-out: T½ (converted); for Cmax / Tmax: sc, 3 mg/kg s.c.; for bioavailability: subcutaneous, 3 mg/kg s.c. vs 1 mg/kg i.v., dose-corrected AUC ratio
Procedure: Prior to the testing of a peptide batch, its purity (HPLC-UV) was determined. Dose was corrected for presence of salts, solvent and purity.
Sprague Dawley rats were dosed with study peptide at a dose of 1 mg/kg intravenously (i.v.) or 3 mg/kg subcutaneously (s.c.) as a solution in PBS (0.2 mg/ml and 0.6 mg/ml respectively).
Plasma samples were analyzed after protein precipitation via liquid chromatography mass spectrometry (LC/MS).
PK parameters and half-life were calculated using Phoenix 64 (WinNonlin 6.4)-Pharsight (Certara™) (non-compartment model). Values below the limit of quantification (BLQ) were replaced by zero for subsequent calculations and PK analysis.
T½: in-vivo half life, time required for test compound plasma concentration to be divided by two during the PK experiment.
C0: Extrapolated test compound plasma concentration at t=0 time point (i.v. route).
Cmax: maximal test compound plasma concentration at the indicated time point (s.c. route).
Tmax: Time point where Cmax is attained.
F %: s.c. vs i.v. bioavailability, dose-corrected area under curve (AUC) s.c. route divided by AUC i.v.

Row | SMILES | Emax (RXFP1) [%] | C0 ([1]; 1 mg/kg i.v.) [nM] | half-life ([1]; 1 mg/kg i.v.) [h] | Cmax [1] [nM] | Tmax [1] [h] | bioavailability [1] [%] | EC50 (RXFP1) [nM] | T½ ([1]; 1 mg/kg i.v.) [h]
1 | CCCCCCCCCCCCCCCC(=O)N[C@@H](CCC(=O)N[C@@H](CCC(=O)N[C@@H](CCC(=O)NCCCC[C@H](NC(=O)CCOCCOCCOCCOCCOCCOCCOCCOCCOCCOCCOCCOCCNC(=O)[C@H](CCCCN)NC(=O)[C@H](CCCNC(=N)N)NC(=O)C(C)(C)NC(=O)[C@H](CO)NC(=O)[C@H](Cc1c[nH]c2ccccc12)NC(=O)[C@@H](NC(=O)[C@H](CO)NC(=O)[C@H](CCCC)NC(=O)CNC(=O)[C@H](CCC(=O)O)NC(=O)C(C)(C)NC(=O)C(C)(C)NC(=O)[C@@H](NC(=O)[C@H](CCC(N)=O)NC(=O)[C@H](C)NC(=O)[C@H](CCCNC(=N)N)NC(=O)[C@@H](NC(=O)[C@H](CCCCN)NC(=O)[C@H](CCC(=O)O)NC(=O)[C@H](CCCNC(=N)N)NC(=O)CNC(=O)[C@H](CCC(=O)O)NC(=O)[C@H](CC(C)C)NC(C)=O)C(C)C)[C@@H](C)CC)[C@@H](C)O)C(N)=O)C(=O)O)C(=O)O)C(=O)O [compound 24] (Ac-LEGREKVRAQI[Aib][Aib]EG[Nle]STWS[Aib]RK[PEG12]K([γGlu-γGlu-γGlu-Palmitoyl])-NH2) | 74 | 3700 | 6.4 | 1800 | 5 | 81 |  | 
2 | CCCCCCCCCCCCCCCC(=O)N[C@@H](CCC(=O)N[C@@H](CCC(=O)N[C@@H](CCC(=O)NCCCC[C@H](NC(=O)CCOCCOCCOCCOCCOCCOCCOCCOCCOCCOCCOCCOCCNC(=O)[C@H](CCCCNC(C)=O)NC(=O)[C@H](CCCCN)NC(=O)[C@H](CCCNC(=N)N)NC(=O)C(C)(C)NC(=O)[C@H](CO)NC(=O)[C@H](Cc1c[nH]c2ccccc12)NC(=O)[C@@H](NC(=O)[C@H](CO)NC(=O)[C@H](CCCC)NC(=O)CNC(=O)[C@H](CCC(=O)O)NC(=O)C(C)(C)NC(=O)C(C)(C)NC(=O)[C@@H](NC(=O)[C@H](CCCCNC(C)=O)NC(=O)[C@H](C)NC(=O)[C@H](CCCNC(=N)N)NC(=O)[C@@H](NC(=O)[C@H](CCCCN)NC(=O)[C@H](CCC(=O)O)NC(=O)[C@H](CCCNC(=N)N)NC(=O)CNC(=O)[C@H](CCC(=O)O)NC(=O)[C@H](CC(C)C)NC(C)=O)C(C)C)[C@@H](C)CC)[C@@H](C)O)C(N)=O)C(=O)O)C(=O)O)C(=O)O [compound 26] (Ac-LEGREKVRAK(Ac)I[Aib][Aib]EG[Nle]STWS[Aib]RKK(Ac)[PEG12]K([γGlu-γGlu-γGlu-Palmitoyl])-NH2) | 85 | 2330 | 5.8 | 770 | 8 | 72 | 0.57 | 
3 | CCCCCCCCCCCCCCCC(=O)N[C@@H](CCC(=O)N[C@@H](CCC(=O)N[C@@H](CCC(=O)NCCCC[C@H](NC(=O)CCOCCOCCOCCOCCOCCOCCOCCOCCOCCOCCOCCOCCNC(=O)[C@H](CCCCNC(C)=O)NC(=O)[C@H](CCCCN)NC(=O)[C@H](CCCNC(=N)N)NC(=O)C(C)(C)NC(=O)[C@H](CO)NC(=O)[C@H](Cc1c[nH]c2ccccc12)NC(=O)[C@@H](NC(=O)[C@H](CO)NC(=O)[C@H](CCCC)NC(=O)CNC(=O)[C@H](CCC(=O)O)NC(=O)C(C)(C)NC(=O)C(C)(C)NC(=O)[C@@H](NC(=O)[C@H](CCCCNC(C)=O)NC(=O)C(C)(C)NC(=O)[C@H](CCCNC(=N)N)NC(=O)[C@@H](NC(=O)[C@H](CCCCN)NC(=O)[C@H](CCC(=O)O)NC(=O)[C@H](CCCNC(=N)N)NC(=O)CNC(=O)[C@H](CCC(=O)O)NC(=O)[C@H](CC(C)C)NC(C)=O)C(C)C)[C@@H](C)CC)[C@@H](C)O)C(N)=O)C(=O)O)C(=O)O)C(=O)O [compound 27] (Ac-LEGREKVR[Aib]K(Ac)I[Aib][Aib]EG[Nle]STWS[Aib]RKK(Ac)[PEG12]K([γGlu-γGlu-γGlu-Palmitoyl])-NH2) | 86 | 3200 |  | 1500 | 8 | 62 | 0.3 | 6.90

Reference: US10988523B2, “Modified lipidated Relaxin B chain peptides and their therapeutic use” (Sanofi, priority 2018, dated 2021)
